Laboratory results published in the supplement of paper PMC10307832.

Key:
Test in all cases: relative viability (nuclei count vs DMSO), 5 days (fraction); higher = more cells survive
[1] = compound: O=C(/C=C/c1ccccc1)NC(NC(=S)Nc1cccc2cccnc12)C(Cl)(Cl)Cl [Salubrinal] + Nc1nc2[nH]cc(CCc3ccc(C(=O)N[C@@H](CCC(=O)O)C(=O)O)cc3)c2c(=O)[nH]1 [Pemetrexed] (partner 0.2 µM)
Procedure, shortened: (§1)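 The day after seeding in 1536-well plates, lung cancer cell lines were treated by pin tool with a single drug, or with a fixed anchor-drug dose together with five library-drug doses (not always all listed) in √10 steps. After 5 days, a combined fix-and-stain solution (final 0.05% Triton X-100, 1% formaldehyde, 1 ug/ml Hoechst) was added. Nuclei counted on 4× images gave relative viability as treated counts over vehicle counts, reported as the median of duplicate plates.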

[2] = compound: Cc1ccc2nc(NCCN)c3ncc(C)n3c2c1 + COc1cccc2cc(-c3nc([C@H]4CC[C@H](C(=O)O)CC4)n4ncnc(N)c34)[nH]c12 [OSI-027] (partner 0.5 µM)
Procedure, shortened: as §1

[3] = compound: O=C(/C=C/c1ccccc1)NC(NC(=S)Nc1cccc2cccnc12)C(Cl)(Cl)Cl [Salubrinal]
Procedure, shortened: (§2)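 Vehicle-anchored 1536-well plates of lung cancer cell lines, held overnight at 37 °C, were pinned with five library-drug doses (not always all listed) spaced by √10. No medium change followed over the next 5 days, after which the cells were fixed, permeabilised and Hoechst-stained together and imaged at 4×. Nuclei were counted with MetaXpress, and viability is treated-well nuclei over vehicle-well nuclei, taken as a median across plates. Plates passed with control CV below 25% and at least one doubling.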

[4] = compound: Cc1ccc2nc(NCCN)c3ncc(C)n3c2c1
Procedure, shortened: as §2

NCI-H2228
relative viability ([1]; first compound 0.08 µM): 0.334
relative viability ([1]; first compound 0.8 µM): 0.404
relative viability ([1]; first compound 2.53 µM): 0.326
relative viability ([1]; first compound 8 µM): 0.277
relative viability ([2]; first compound 0.04 µM): 0.589
relative viability ([2]; first compound 0.1265 µM): 0.656
relative viability ([2]; first compound 0.4 µM): 0.617
relative viability ([2]; first compound 1.265 µM): 0.59
relative viability ([2]; first compound 4 µM): 0.719
relative viability ([3]; 0.08 µM): 1.23
relative viability ([3]; 0.253 µM): 0.757
relative viability ([3]; 0.8 µM): 1.21
relative viability ([3]; 2.53 µM): 1.04
relative viability ([3]; 8 µM): 0.968
relative viability ([4]; 0.04 µM): 1.15
relative viability ([4]; 0.1265 µM): 0.992
relative viability ([4]; 0.4 µM): 1.03
relative viability ([4]; 1.265 µM): 0.915
relative viability ([4]; 4 µM): 0.838

NCI-H2342
relative viability ([1]; first compound 0.08 µM): 0.722
relative viability ([1]; first compound 0.253 µM): 0.772
relative viability ([1]; first compound 0.8 µM): 0.937
relative viability ([1]; first compound 2.53 µM): 0.758
relative viability ([1]; first compound 8 µM): 0.826
relative viability ([2]; first compound 0.04 µM): 0.659
relative viability ([2]; first compound 0.1265 µM): 0.607
relative viability ([2]; first compound 0.4 µM): 0.767
relative viability ([2]; first compound 1.265 µM): 0.551
relative viability ([2]; first compound 4 µM): 0.595
relative viability ([3]; 0.08 µM): 1.04
relative viability ([3]; 0.253 µM): 0.88
relative viability ([3]; 0.8 µM): 1.07
relative viability ([3]; 2.53 µM): 1.03
relative viability ([3]; 8 µM): 0.858
relative viability ([4]; 0.04 µM): 1.19
relative viability ([4]; 0.1265 µM): 1.08
relative viability ([4]; 0.4 µM): 0.989
relative viability ([4]; 1.265 µM): 1.08
relative viability ([4]; 4 µM): 0.841

NCI-H2347
relative viability ([1]; first compound 0.08 µM): 0.43
relative viability ([1]; first compound 0.253 µM): 0.43
relative viability ([1]; first compound 0.8 µM): 0.423
relative viability ([1]; first compound 2.53 µM): 0.452
relative viability ([1]; first compound 8 µM): 0.529
relative viability ([2]; first compound 0.04 µM): 0.373
relative viability ([2]; first compound 0.1265 µM): 0.503
relative viability ([2]; first compound 0.4 µM): 0.386
relative viability ([2]; first compound 1.265 µM): 0.425
relative viability ([2]; first compound 4 µM): 0.223
relative viability ([3]; 0.08 µM): 0.94
relative viability ([3]; 0.253 µM): 1.03
relative viability ([3]; 0.8 µM): 1.15
relative viability ([3]; 2.53 µM): 1.08
relative viability ([3]; 8 µM): 1.07
relative viability ([4]; 0.04 µM): 1.06
relative viability ([4]; 0.1265 µM): 1.12
relative viability ([4]; 0.4 µM): 0.911
relative viability ([4]; 1.265 µM): 0.986
relative viability ([4]; 4 µM): 0.962

NCI-H2405
relative viability ([1]; first compound 0.08 µM): 1.01
relative viability ([1]; first compound 0.253 µM): 1.16
relative viability ([1]; first compound 0.8 µM): 1.17
relative viability ([1]; first compound 2.53 µM): 1.05
relative viability ([1]; first compound 8 µM): 1.07
relative viability ([2]; first compound 0.04 µM): 0.694
relative viability ([2]; first compound 0.1265 µM): 0.628
relative viability ([2]; first compound 0.4 µM): 0.686
relative viability ([2]; first compound 1.265 µM): 0.623
relative viability ([2]; first compound 4 µM): 0.636
relative viability ([3]; 0.08 µM): 1.01
relative viability ([3]; 0.253 µM): 1.03
relative viability ([3]; 0.8 µM): 1.09
relative viability ([3]; 2.53 µM): 1.03
relative viability ([3]; 8 µM): 0.966
relative viability ([4]; 0.04 µM): 1.02
relative viability ([4]; 0.1265 µM): 1.01
relative viability ([4]; 0.4 µM): 1.03
relative viability ([4]; 1.265 µM): 1.05
relative viability ([4]; 4 µM): 0.915

NCI-H3122
relative viability ([1]; first compound 0.08 µM): 0.198
relative viability ([1]; first compound 0.253 µM): 0.181
relative viability ([1]; first compound 0.8 µM): 0.204
relative viability ([1]; first compound 2.53 µM): 0.198
relative viability ([1]; first compound 8 µM): 0.195
relative viability ([2]; first compound 0.04 µM): 1.06
relative viability ([2]; first compound 0.1265 µM): 0.953
relative viability ([2]; first compound 0.4 µM): 0.858
relative viability ([2]; first compound 1.265 µM): 0.828
relative viability ([2]; first compound 4 µM): 0.678
relative viability ([3]; 0.08 µM): 1.08
relative viability ([3]; 0.253 µM): 1
relative viability ([3]; 0.8 µM): 1.09
relative viability ([3]; 2.53 µM): 1.05
relative viability ([3]; 8 µM): 1.01
relative viability ([4]; 0.04 µM): 0.998
relative viability ([4]; 0.1265 µM): 0.988
relative viability ([4]; 0.4 µM): 0.999
relative viability ([4]; 1.265 µM): 1.06
relative viability ([4]; 4 µM): 1.01

PC-3 [JPC-3]
relative viability ([1]; first compound 0.08 µM): 0.879
relative viability ([1]; first compound 0.253 µM): 0.919
relative viability ([1]; first compound 0.8 µM): 1.49
relative viability ([1]; first compound 2.53 µM): 1.02
relative viability ([1]; first compound 8 µM): 1.04
relative viability ([2]; first compound 0.04 µM): 0.776
relative viability ([2]; first compound 0.1265 µM): 0.83
relative viability ([2]; first compound 0.4 µM): 0.734
relative viability ([2]; first compound 1.265 µM): 0.822
relative viability ([2]; first compound 4 µM): 0.767
relative viability ([3]; 0.08 µM): 1.05
relative viability ([3]; 0.253 µM): 0.915
relative viability ([3]; 0.8 µM): 1.16
relative viability ([3]; 2.53 µM): 1.04
relative viability ([3]; 8 µM): 0.969
relative viability ([4]; 0.04 µM): 1.01
relative viability ([4]; 0.1265 µM): 1.05
relative viability ([4]; 0.4 µM): 1
relative viability ([4]; 1.265 µM): 1.09
relative viability ([4]; 4 µM): 0.998
